In patent US20040191169A1, “Methods of protection from toxicity of alpha emitting elements during radioimmunotherapy” (priority 2003, published 2004):

Experiments:
[1] = Diuretic therapy, alone or combined with DMPS: renal ^221Fr and ^213Bi activity after ^225Ac labeled HuM195 injection; assay type: in vivo, mice; details: diuretic alone i.p.; 24 hours post-injection
Procedure: (§1) The mice were anesthetized and then injected intravenously in the retro-orbital venous plexus with 0.5 μCi of either ^225Ac labeled HuM195 for chelation, diuresis and competitive metal blockade experiments or of ^225Ac labeled SJ25C1 for tumor burden experiments. The injected volume was 100 μl. In order to detect adequate numbers of disintegrations in tissues by use of the gamma-counter, the injected doses of ^225Ac nanogenerator, i.e., ˜30 μCi/kg, are much higher than the doses for human clinical trials with these adjuvants.
Mice were randomized to furosemide treatment, chlorthiazide (CTZ) treatment or no treatment(control)groups (5 animals per group). Furosemide and CTZ were administered intraperitoneally (i.p.). The loading doses of furosemide and CTZ were 250 mg/kg and 750 mg/kg respectively, administered one hour before ^225Ac nanogeneratorinjection. The maintenance doses were 100 mg/kg and 300 mg/kg, respectively, administered 12 hours and 24 hours after the loading dose. The controls were injected with an equal volume of saline (vehicle).
Alternatively, mice received DMPS (1.2 mg/ml in drinking water) and either furosemide or CTZ i.p using the same dose schedule as above. The controls received regular drinking water and were injected with an equal volume of saline. The animals were sacrificed at 24 hours post-injection with the labeled antibody and the mean activity (% ID/g) of ^225Ac, ^221Fr and ^213Bi in blood and kidneys was calculated for each experimental group, as described above.

[2] = Competitive metal blockade with bismuth subnitrate: renal ^213Bi and ^221Fr activity after ^225Ac labeled HuM195 injection; assay type: in vivo, mice
Procedure: as §1
Mice (5 per group) were injected i.p. with 200 μl of 1% bismuth subnitrate (BSN; Sigma, St. Louis, Mo.) suspension (100 mg/kg) or an equal volume of saline (controls) 4 hours before ^225Ac nanogenerator injection. These animals were sacrificed at 6 hours post-injection with the ^225Ac nanogenerator. Alternatively, mice were injected i.p. with 200 μl of 1% BSN suspension, 4 hours before and 8 and 20 hours after ^225Ac nanogenerator injection (n=5) or an equal volume of saline (n=5). These animals were sacrificed 24 hours after ^225Ac nanogenerator injection. The mean % ID/g of ^225Ac, ^221Fr and ^213Bi in blood and kidneys at sacrifice-time was calculated for each experimental group.

[3] = Free metal scavenging with DMPS or DMSA: tissue ^213Bi and ^221Fr activity after ^225Ac labeled HuM195 injection; assay type: in vivo, mice; details: for renal ^213Bi activity: chelator in drinking water, mean (SE); for renal ^221Fr activity versus untreated controls: at either 6 hours or 72 hours post-injection
Procedure: as §1
Animals received either 2,3-dimercapto-1-propanesulfonic acid (DMPS; Sigma, St. Louis, Mo.) or meso-2,3-dimercaptosuccinic acid (DMSA; Sigma, St. Louis, Mo.) in drinking water (1.2 mg/ml and 1.5 mg/ml, respectively), starting one day before injection with ^225Ac nanogenerator and continued until the animals were sacrificed. The control animals received regular drinking water. Animals (n=5 per group) were sacrificed at 6 and 72 hours post-injection by carbon-dioxide asphyxiation.
Samples of blood taken by cardiac puncture, of kidneys, of liver and of small intestine were removed. The organs were washed in distilled water, blotted dry on gauze, weighed, and the activity of ^221Fr (185-250 keV window) and ^213Bi (360-480 keV window) was measured using a gamma counter (COBRA II, Packard Instrument Company, Meriden, Conn.). Samples of the injectate (100 μl) were used as decay correction standards. Adjustment was made for the small percentage of bismuth activity that counted in the francium activity window. Percentage injected dose of ^225Ac, ^221Fr and ^213Bi per gram of tissue weight (% ID/g) was calculated for each animal at the time of sacrifice, using the equation (78):
A2(0)=[A2−A2(eq)·(e^−λ2t−e^−λ1t)]·e^λ2t
where λ1 and λ2 are the decay constants of Ac and Bi, respectively. The mean % ID/g was determined for each experimental group.

[4] = cited from earlier work
[5] = Tumor burden experiment: ^213Bi activity in kidneys and femurs after ^225Ac labeled SJ25C1, disseminated human Daudi lymphoma; assay type: in vivo, SCID mice
Procedure: Disseminated human Daudi lymphoma (84) treated with ^225Ac labeled anti-CD19, was used as the model system. SCID mice, 10-12 weeks old, were randomized to “low tumor burden” or 7 days growth of tumor, “high tumor burden” or 30 days growth of tumor or “high tumor burden+DMPS” group or 30 days growth of tumor and treated with 1.2 mg/ml DMPS in drinking water, starting one day before injection with ^225Ac nanogenerator. All mice were injected intravenously with 5×10^6 Daudi lymphoma cells in 0.1 ml phosphate buffered saline (PBS). The “low burden” animals were injected with the tumor cells 23 days after the “high burden” ones. The animals were checked daily for the onset of hind-leg paralysis. 30 days after injection of tumor cells in the “high burden” animals and 7 days after injection for the “low burden” group, all animals were injected retro-orbitally with 0.5 μCi of ^225Ac labeled SJ25C1 in 100 μl.
The animals (5 per group) were sacrificed at 24 hours post-injection and the mean ^225Ac, ^221Fr and ^213Bi activity (% ID/g) in blood, femurs and kidneys was calculated for each experimental group. The % of human-CD20 positive cells in the femoral bone marrow was estimated in one representative animal from the “high and low burden” groups by flow cytometric staining with phycoerythrin (PE)-conjugated anti-human CD20 (BD, San Jose, Calif.) and compared to that of a non tumor-bearing mouse of the same strain.

[6] = In vivo biodistribution of [Ac]Hum195 at 24 hours in DMPS-treated and untreated monkeys; design: species or system cynomolgus monkeys; details: one treated versus one untreated monkey, DMPS in water 24 hours plus one i.v. dose 90 min before sacrifice
Procedure: Two cynomolgus monkeys weighing about 7 kg were injected with 25 μCi of Ac-225 nanogenerators on HuM195 antibodies. One monkey received water and the other received DMPS in water for 24 hours and one dose of DMPS intravenously 90 min before sacrifice. At 24 hours the two monkeys were sacrificed and the kidneys examined for Bi-213 daughters. A 70% reduction in Bi-213 in the kidneys of the treated monkey was found (FIG. 7).

CD33 antigen = CD33 antigen (Homo sapiens, UniProt P20138); details: on the order of; cited from earlier work
Chain of CD33 antigen (P20138 18-364): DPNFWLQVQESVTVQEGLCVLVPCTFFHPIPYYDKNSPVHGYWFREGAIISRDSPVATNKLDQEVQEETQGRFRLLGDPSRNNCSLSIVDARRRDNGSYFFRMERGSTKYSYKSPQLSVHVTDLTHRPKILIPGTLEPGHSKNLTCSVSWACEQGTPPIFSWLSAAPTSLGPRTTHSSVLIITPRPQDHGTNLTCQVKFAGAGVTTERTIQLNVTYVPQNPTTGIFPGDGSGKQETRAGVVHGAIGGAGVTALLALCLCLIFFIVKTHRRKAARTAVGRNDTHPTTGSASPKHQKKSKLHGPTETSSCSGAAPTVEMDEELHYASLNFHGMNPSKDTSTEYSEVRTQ

Compound	24 hour renal ^213Bi activity [1] [% ID/g]	24 hour renal ^221Fr activity [1] [% ID/g]	mean blood ^213Bi activity ([3]; 6 hours post-injection) [% ID/g]	renal ^213Bi activity ([3]; 6 hours post-injection) [% ID/g]	mean blood ^213Bi activity ([3]; 72 hours post-injection) [% ID/g]	renal ^213Bi activity ([3]; 72 hours post-injection) [% ID/g]	renal ^221Fr activity versus untreated controls [3]	extent of non-protein sulfhydryl formation in human plasma [4] [%]	other results
NS(=O)(=O)c1cc(C(=O)O)c(NCc2ccco2)cc1Cl [furosemide]	18.3±0.6	11.8±0.4							
O=[N+]([O-])[O-].O=[N+]([O-])[O-].O=[N+]([O-])[O-].O=[N+]([O-])[O-].[Bi+3].[Bi+3].[Bi+3].[Bi+3].[Bi+3].[O-2].[OH-].[OH-].[OH-].[OH-].[OH-].[OH-].[OH-].[OH-].[OH-] [BSN, bismuth subnitrate]									renal ^213Bi activity ([2]; 6 hours post-injection, BSN 100 mg/kg i.p. 4 hours before): 46.1±1.4 % ID/g; renal ^213Bi activity ([2]; 24 hours post-injection, BSN i.p. 4 hours before and 8 and 20 hours after): 48.2±0.6 % ID/g; renal ^221Fr activity ([2]; at either time-point (6 hours, 24 hours)): unaltered
O=C(O)[C@@H](S)[C@@H](S)C(=O)O [DMSA, meso-2,3-dimercaptosuccinic acid]			5.8±0.5	66.0±1.9	4.8±0.6	41.4±7.3	not significantly different	8	
NS(=O)(=O)c1cc2c(cc1Cl)N=CNS2(=O)=O [CTZ, chlorthiazide]	18.6±1.6	9.7±0.4							
O=S(=O)(O)CC(S)CS (stereo not shown) [DMPS, 2,3-dimercapto-1-propanesulfonic acid]			9.2±0.5	38.6±5.5	5.5±0.1	21.7±2.1	not significantly different	37	relative effectiveness in reducing the renal ^213Bi activity ([3]; comparison between chelators): significantly more effective than DMSA; kidney to femur activity ratio for ^213Bi ([5]; DMPS treated animals bearing the target tumor): significantly lower; renal ^213Bi activity ([5]; high tumor burden + DMPS 1.2 mg/ml in drinking water, 24 hours post-injection): 16.7±2.7 % ID/g; femur ^213Bi activity ([5]; high tumor burden + DMPS, 24 hours post-injection): 4.8±0.6 % ID/g; reduction in Bi-213 in the kidneys [6]: 70%
HuM195: humanized anti-CD33 IgG1 monoclonal antibody									affinity (CD33 antigen): 10^−9 to 10^−10 M
